Data as given in patent publication US11950925B2, “Managing fluid levels in a patient and associated devices, systems, and methods” (REPRIEVE CARDIOVASCULAR, INC., priority 2019, dated 2024).
Where “and” joins values, the source holds several entries; their conditions need not be identical. Equal values may be shown once.

What was measured:
[1] = human, in vivo
Description: (§1) Clinical data associated with embodiments of the present technology were obtained from patient tests conducted at the Tbilisi Heart and Vascular Center in Tbilisi, Georgia. 15 patients underwent fluid therapy in which diuretic(s) and hydration fluid were administered via the Reprieve Cardiovascular™ Second Generation System according to the methods described herein (“treatment group”). As described below, data obtained from the tests indicate that the net fluid loss and net sodium loss levels achieved represent a significant improvement over conventional methods for treating fluid overload conditions, and generally indicate that embodiments of the present technology produce improved diuresis and renal safety.
Estimated glomerular filtration rate (eGFR) is a measure of kidney function and stage of kidney disease, and is based on patient factors including blood creatinine and a patient's age, body size, and gender.
Blood pressure measurements of the patients in the treatment group serve as another indication that the fluid therapy was well received by the patients. For example, the average mean arterial pressure (MAP) of patients dropped from 90.1 mmHg to 88.2 mmHg at the time of patient discharge, and then to 87.2 mmHg after 30 days. Additionally, average systolic pressure of the patients dropped from 121 mmHg to 119 mmHg at the time of patient discharge, and then to 117 mmHg after 30 days.

[2] = Fluid overload therapy with diuretic (Lasix) and hydration fluid via the Reprieve Cardiovascular Second Generation System: diuresis, fluid, sodium and weight outcomes; assay type: in vivo, human
Description: as §1
Table 1 below indicates total urine output, net fluid loss (not including intake fluid), net fluid loss (including intake fluid), net sodium balance, and average diuretic (Lasix) dosage rate for each patient in the treatment group, as measured across a therapy timespan. […] Additionally, the average therapy timespan for the treatment group was 31 hours, whereas the average therapy timespan for standard of care therapy in the literature is approximately 5 days. […] Over the 30 days, none of the patients in the treatment group regained the weight that lost during therapy or were readmitted for additional treatment.
As also shown in Table 1, the average net sodium balance for all patients in the treatment group decreased by nearly 800 millimoles (mmol) over the therapy timespan. When normalized over a 24-hour period, the average and median net sodium balance was −14 grams (g) and −15 g respectively.

[3] = average of 15 treatment group patients, average therapy timespan 31 h
[4] = individual patient, over that patient's therapy timespan, Lasix plus hydration fluid
[5] = normalized over a 24-hour period

## NS(=O)(=O)c1cc(C(=O)O)c(NCc2ccco2)cc1Cl [Lasix, Furosemide]
[1]
  average decrease of eGFR: 1.6
  average increase in creatinine: 0.11 mg/dL
  tolerability of the fluid therapy: generally well tolerated
[2]; all treatment group patients, over the therapy timespan
  decrease of average net sodium balance: ~800 mmol
[2]; [3]
  Net Fluid Loss (including oral fluid intake), average: −5,919 ml
  Net Fluid Loss (not including oral fluid intake), average: −6,948 ml
  Total Urine, average: 12,744 ml
[2]; [4]
  Net Fluid Loss (including oral fluid intake): −4,868 ml and −4,247 ml and −2,232 ml and −10,787 ml and −1,021 ml and −6,276 ml and −5,625 ml and −3,636 ml and −10,299 ml and −3,724 ml and −9,156 ml and −6,583 ml and −6,186 ml and −10,301 ml and −3,844 ml
  Net Fluid Loss (not including oral fluid intake): −6,001 ml and −4,590 ml and −2,993 ml and −11,913 ml and −2,003 ml and −8,306 ml and −6,941 ml and −3,953 ml and −12,269 ml and −4,364 ml and −9,995 ml and −7,888 ml and −7,018 ml and −11,333 ml and −4,704 ml
  Total Urine: 14,158 ml and 11,456 ml and 6,329 ml and 19,728 ml and 3,726 ml and 12,966 ml and 12,179 ml and 6,496 ml and 20,184 ml and 8,328 ml and 17,784 ml and 14,629 ml and 12,930 ml and 21,155 ml and 9,162 ml
[2]; [5]
  average net fluid loss: approximately 5.4 L
  average net sodium balance: -14 g
  median net sodium balance: -15 g
[2]; treatment group vs conventional therapy (diuretic, no replacement hydration fluid), normalized 24-hour period
  increase in net fluid loss relative to control group: over 200%
[2]; treatment group, after 30 days
  average weight loss: 5.7 kg
[2]; treatment group, at the time of patient discharge
  average weight loss: 6.8 kg
[2]; treatment group, over an average therapy timespan of 31 hours
  average net fluid loss (not including oral fluid intake): ~7 L
[2]; treatment group, over the 30 days
  patients who regained the weight lost during therapy or were readmitted for additional treatment: none
